Measured values from patent publication US20140243418A1, “RASAGILINE FOR PARKINSON'S DISEASE MODIFICATION” (Teva Pharmaceutical Industries, Ltd., priority 2008, published 2014).
“And” between values parts separate entries of the source, which are not always exact repeats. Equal entries are not always repeated. Where two headings read alike, the source gives them in different places.

System: Early Stage PD patients
Details: for 1 mg Early-Delayed Start Slope Difference, Estimate / 2 mg Early-Delayed Start Slope Difference, Estimate / 1 mg-Placebo Slope Difference, Estimate / 2 mg-Placebo Slope Difference, Estimate: Total UPDRS slopes; for 1 mg Early-Delayed Start Slope Difference, Estimate / 2 mg Early-Delayed Start Slope Difference, Estimate: Active Phase weeks 48-72, non-inferiority margin 0.15; for 1 mg Early-Delayed Start Slope Difference, Estimate / 1 mg-Placebo Slope Difference, Estimate / 1 mg-Placebo Week 36-12, Estimate / 1 mg Early-Delayed Start at week 72, Estimate: rasagiline 1 mg; for 2 mg Early-Delayed Start Slope Difference, Estimate / 2 mg-Placebo Slope Difference, Estimate / 2 mg-Placebo Week 36-12, Estimate / 2 mg Early-Delayed Start at week 72, Estimate: rasagiline 2 mg; for 1 mg-Placebo Slope Difference, Estimate / 2 mg-Placebo Slope Difference, Estimate: PC phase weeks 12-36, model that assumes linearity; for 1 mg-Placebo Week 36-12, Estimate / 2 mg-Placebo Week 36-12, Estimate: Total UPDRS, PC phase, alternative categorical model that compares week 36 to week 12; for outcome of the primary analysis (three hierarchal endpoints): both doses, post-hoc; for 1 mg Early-Delayed Start at week 72, Estimate / 2 mg Early-Delayed Start at week 72, Estimate: change from baseline in Total UPDRS, end of the Active Phase
Procedure: 1 mg/day rasagiline during Phase I and Phase II; • Group 2. 2 mg/day rasagiline during Phase I and Phase II; • Group 3. placebo during Phase I followed by 1 mg/day rasagiline during Phase II; and • Group 4. placebo during Phase I followed by 2 mg/day rasagiline during Phase II.
Thus, ‘early-start’ patients receive 72 weeks of treatment with rasagiline (1 or 2 mg once daily) and ‘delayed-start’ patients receive 36 weeks of placebo followed by 36 weeks of rasagiline (1 or 2 mg once daily). […] If subjects in either treatment group required additional anti-parkinsonian medication during the placebo-controlled stage of the trial, they could proceed directly to Phase II. Once in Phase II, no additional anti-PD therapy is permitted. If the patient requires additional medication in this stage they are discontinued from the study.
1 mg/day rasagiline during Phase I and Phase II (1 mg early start) • 2. 2 mg/day rasagiline during Phase I and Phase II (2 mg early start) • 3. placebo during Phase I followed by 1 mg/day rasagiline during Phase II (1 mg delayed start) • 4. placebo during Phase I followed by 2 mg/day rasagiline during Phase II (2 mg delayed start)
If, at any stage during the placebo-controlled phase the investigator determines that a subject needs additional anti-PD therapy, the subject will proceed to Phase II of the study. The investigator, aided by a questionnaire, will give careful consideration to the issue of a subject's need for additional anti-PD therapy. Scheduled in-clinic visits will be conducted at baseline and at weeks 4, 12, 24 and 36. Therefore, altogether there will be 5 scheduled visits during this phase. Unscheduled visits may be conducted at any time to assess a subject's need for additional anti-PD therapy, for safety reasons or for any other reason.
Thus, subjects who receive 1 mg rasagiline during Phase I will continue to receive 1 mg during Phase II, subjects who receive 2 mg rasagiline during Phase I will continue to receive 2 mg during Phase II, and subjects who receive placebo during Phase I will receive either 1 mg or 2 mg rasagiline during Phase II. The study blind will be maintained. No additional anti-PD therapy will be permitted during this phase. This applies to both the subjects who enter Phase II after completing the full 36-week duration of Phase I and to subjects who are switched from Phase I to Phase II because of a need of additional anti-PD therapy. If, the investigator determines that a subject needs additional anti-PD therapy during Phase II, the subject will be prematurely withdrawn from the study. The investigator, aided by a questionnaire, will give careful consideration to the issue of a subject's need for additional anti-PD therapy. Scheduled in-clinic visits will be conducted every 6 weeks. Therefore, altogether there will be 6 visits during this phase—at weeks 42, 48, 54, 60, 66 and 72. Unscheduled visits may be conducted at any time to assess a subject's need for additional anti-PD therapy, for safety reasons or for any other reason.

[1] = rasagiline 1 mg/day delayed-start, Baseline UPDRS > 25.5 (Upper Quartile)
[2] = rasagiline 1 mg/day delayed-start, Baseline UPDRS ≦ 25.5 (Lower 3 Quartiles)
[3] = rasagiline 1 mg/day delayed-start, all subjects
[4] = rasagiline 1 mg/day delayed-start, all subjects, listed as Rasagiline
[5] = rasagiline 1 mg/day early-start minus delayed-start, Baseline UPDRS > 25.5 (Upper Quartile)
[6] = rasagiline 1 mg/day early-start minus delayed-start, Baseline UPDRS ≦ 25.5 (Lower 3 Quartiles)
[7] = rasagiline 1 mg/day early-start, Baseline UPDRS > 25.5 (Upper Quartile)
[8] = rasagiline 1 mg/day early-start, Baseline UPDRS ≦ 25.5 (Lower 3 Quartiles)
[9] = rasagiline 1 mg/day early-start, all subjects
[10] = rasagiline 1 mg/day early-start, all subjects, listed as Rasagiline

C#CCN[C@@H]1CCc2ccccc21 [rasagiline]
Disease modifying effect (1 mg treatment, according to FDA requirements as predefined in the statistical analysis plan): demonstrated | Disease modifying effect (2 mg treatment): not evident | symptomatic effect observed in TEMPO (ADAGIO placebo controlled (PC) phase, rasagiline 1 mg and 2 mg versus placebo): replicated | change in Total UPDRS score at week 72 (Early Stage PD patients, dose not stated): 2.8 | rate of progression of PD (Early Stage PD patients, improved from 0.139, dose not stated): 0.066 score (change in Total UPDRS)/week | 1 mg Early-Delayed Start Slope Difference, Estimate (ACTE): 0.000 | 1 mg Early-Delayed Start Slope Difference, Estimate (CO): −0.011 | 1 mg Early-Delayed Start Slope Difference, Estimate (PP): −0.011 | 2 mg Early-Delayed Start Slope Difference, Estimate (ACTE): 0.029 | 2 mg Early-Delayed Start Slope Difference, Estimate (CO): 0.021 | 2 mg Early-Delayed Start Slope Difference, Estimate (PP): 0.022 | 1 mg-Placebo Slope Difference, Estimate (CO data analysis set): −0.033 | 1 mg-Placebo Slope Difference, Estimate (ITT data analysis set): −0.046 | 1 mg-Placebo Slope Difference, Estimate (PP data analysis set): −0.037 | 2 mg-Placebo Slope Difference, Estimate (CO data analysis set): −0.061 | 2 mg-Placebo Slope Difference, Estimate (ITT data analysis set): −0.072 | 2 mg-Placebo Slope Difference, Estimate (PP data analysis set): −0.065 | 1 mg-Placebo Week 36-12, Estimate (CO): −0.799 | 1 mg-Placebo Week 36-12, Estimate (ITT): −1.043 | 1 mg-Placebo Week 36-12, Estimate (PP): −0.873 | 2 mg-Placebo Week 36-12, Estimate (CO): −1.463 | 2 mg-Placebo Week 36-12, Estimate (ITT): −1.668 | 2 mg-Placebo Week 36-12, Estimate (PP): −1.553 | difference in change in Total UPDRS score vs delayed treatment, maintained (between Week 48 and Week 72, dose not stated): 1.7 score | outcome of the primary analysis (three hierarchal endpoints) (lower three quartiles of baseline UPDRS scores (≦25.5)): neither dose met all of the primary endpoints | outcome of the primary analysis (three hierarchal endpoints) (upper quartile of baseline total UPDRS (>25.5)): met all 3 primary endpoints | 1 mg Early-Delayed Start at week 72, Estimate (ACTE data analysis set): −1.680 | 1 mg Early-Delayed Start at week 72, Estimate (CO data analysis set): −1.592 | 1 mg Early-Delayed Start at week 72, Estimate (PP data analysis set): −1.594 | 2 mg Early-Delayed Start at week 72, Estimate (ACTE data analysis set): 0.356 | 2 mg Early-Delayed Start at week 72, Estimate (CO data analysis set): −0.088 | 2 mg Early-Delayed Start at week 72, Estimate (PP data analysis set): −0.024 | reduction in Total UPDRS score at week 72 (corresponding to change of 2.8 at week 72): 62.2% | duration for which benefits of early treatment are sustained (early treatment vs later initiation): at least 18 months | Primary 2: estimated change in total UPDRS from baseline to week 72 [1]: 5.41 | Primary 3: rate of change in UPDRS, weeks 48-72 [1]: 0.095 UPDRS units/wk | Primary 2: estimated change in total UPDRS from baseline to week 72 [2]: 4.03 | Primary 3: rate if change in UPDRS, weeks 48-72 [2]: 0.08 UPDRS units/wk | Primary 2: estimated change in total UPDRS from baseline to week 72 [3]: 4.50 | Primary 3: rate of change in UPDRS, weeks 48-72 [3]: 0.085 UPDRS units/wk | Primary 2: estimated change in total UPDRS from baseline to week 72 [4]: 4.52±0.56 | Primary 3: rate of change in UPDRS, weeks 48-72 [4]: 0.085±0.02 UPDRS units/wk | Primary 2: estimated change in total UPDRS from baseline to week 72, early-start-delayed-start [5]: −3.40±1.66 and −3.40 | Primary 3: rate of change in UPDRS, weeks 48-72, early-start-delayed-start [5]: −0.02 UPDRS units/wk | Primary 2: estimated change in total UPDRS from baseline to week 72, early-start-delayed-start [6]: −1.08 | Primary 3: rate if change in UPDRS, weeks 48-72, early-start-delayed-start [6]: 0.004 UPDRS units/wk | Primary 2: estimated change in total UPDRS from baseline to week 72, early-start-delayed-start (rasagiline 1 mg/day early-start minus delayed-start, all subjects): −1.68±0.75 and −1.68 | Primary 3: rate of change in UPDRS, weeks 48-72, early-start-delayed-start (rasagiline 1 mg/day early-start minus delayed-start, all subjects, non-inferiority margin 0.15): 0.00 UPDRS units/wk | Primary 2: estimated change in total UPDRS from baseline to week 72 [7]: 2.01 | Primary 3: rate of change in UPDRS, weeks 48-72 [7]: 0.075 UPDRS units/wk | Primary 2: estimated change in total UPDRS from baseline to week 72 [8]: 2.94 | Primary 3: rate if change in UPDRS, weeks 48-72 [8]: 0.09 UPDRS units/wk | Primary 2: estimated change in total UPDRS from baseline to week 72 [9]: 2.82 | Primary 3: rate of change in UPDRS, weeks 48-72 [9]: 0.085 UPDRS units/wk | Primary 2: estimated change in total UPDRS from baseline to week 72 [10]: 2.82±0.53 | Primary 3: rate of change in UPDRS, weeks 48-72 [10]: 0.085±0.02 UPDRS units/wk
